Measured values as given in article PMC5813016 (Nature Communications, 2018).
Where “and” joins values, the source holds several entries; their conditions need not be identical. Identical values can stand only once. Entries after “also recorded” stand apart in the source; their conditions may differ.

Tests used:
[1] = Plasma concentrations in monkey EBR study; type: in vivo, cynomolgus monkey; settings: mean ± SD
Description: For both compounds, blood collections occurred on day 1, day 2, and day 3. All blood samples were placed on wet ice until centrifugation. Following centrifugation, the plasma was transferred to polypropylene tubes and stored frozen at –20 °C to –80 °C until analysis.

[2] = Equilibrium dialysis, unbound fraction in rat brain homogenate; type: in vitro ADME; settings: read-out: unbound fraction in rat brain homogenate (fu,b)
[3] = Equilibrium dialysis, unbound fraction in monkey plasma; type: in vitro ADME; settings: read-out: unbound fraction in monkey plasma (fu,p)
[4] = tested on: rats with unilateral 6-OHDA lesions; assay: Rat unilateral 6-OHDA lesion model, contralateral rotations; type: in vivo, Sprague-Dawley rat; settings: for contralateral rotational behavior on repeated dosing: 6-OHDA lesioned rats, six doses every 12 h, A-77636 0.32 mg/kg s.c., PF-2334 10.78 mg/kg oral; for pairwise contrast of rotational speed, estimate: 6-OHDA rats
Description: Sprague-Dawley rats with 6-OHDA lesions were obtained from Taconic (Rensselaer, NY). For the lesion surgery rats (~175 g) were anesthetized with isoflurane and given desipramine to protect noradrenergic neurons (10 mg/kg). The medial forebrain was targeted using AP:−4.3 mm; ML:−1.2 mm; DV:8.3 mm using a 30 G cannula. […] The cannula was left in place post-infusion for 5 min. To assess the extent of the lesion animals were given an apomorphine (0.05 mg/kg S.C.) challenge 21 day after the lesion surgery. Matched sham lesioned animals from the same source received exactly the same procedures except saline was infused into the brain. Only animals with more than 180 contralateral rotations over 30 min or more than 30 rotations in multiple 5 min intervals were used for the study. Experiments began 12 weeks after lesion.
Rats with sham (n = 20) and unilateral 6-OHDA lesions (n = 17) were obtained and four weeks after lesion used for the study. […] Animals followed a normal light cycle (6:00 AM lights on and 6:00 PM lights off). Animals were provided with food and water ad libitum in the chambers. Activity was monitored with infrared ceiling cameras (Y-cam, London, UK) and rotational behavior was quantified by automated movie analysis via validated custom software. Animals were acclimated and recorded for 2 h to the test chambers prior to the first dose.
Rotational behavior was detected using custom software written in Python language, version 2.7. OpenCV library, version 2.10 was used for video analyses[73],[74]. R software, version 3.1.0, was used for statistical analyses. Rotational behavior is described as the average number of rotations per minute (RPM) during the 6 h period immediately following each dose. To quantify changes within each treatment group as well as differences between treatments over time we used a longitudinal mixed model two-way ANOVA[75] with time, treatment, and their interaction as fixed factors and animal as a random factor. Least-squares means for specified factors were estimated using lsmeans library. Post-hoc comparisons to reference time point were adjusted for multiple hypothesis testing via Dunnett′s method. All statistical tests were performed two-tailed at a 5% level of significance.

human D1R S107A mutant = assay: cAMP assay, D1R mutant S107A; settings: relative to wild-type D1R; each table line is one experiment (Experiment # 1-6)
human D1R V270A mutant = assay: cAMP assay, D1R mutant V270A; settings: relative to wild-type D1R; each table line is one experiment (Experiment # 1-6)
human D1R I117A mutant = assay: cAMP assay, D1R mutant I117A; settings: relative to wild-type D1R; each table line is one experiment (Experiment # 1-6)
human D1R K81R mutant = assay: cAMP assay, D1R mutant K81R; settings: relative to wild-type D1R; each table line is one experiment (Experiment # 1-6)
human D1R W321A mutant = assay: cAMP assay, D1R mutant W321A; settings: relative to wild-type D1R; each table line is one experiment (Experiment # 1-6)
human D1R S199A mutant = assay: cAMP assay, D1R mutant S199A; settings: relative to wild-type D1R; each table line is one experiment (Experiment # 1-6)
human D1R S188I mutant = assay: cAMP assay, D1R mutant S188I; settings: relative to wild-type D1R; each table line is one experiment (Experiment # 1-6)
human D1R W318A mutant = assay: cAMP assay, D1R mutant W318A; settings: relative to wild-type D1R; each table line is one experiment (Experiment # 1-6)
human D1R S198A mutant = assay: cAMP assay, D1R mutant S198A; settings: relative to wild-type D1R; each table line is one experiment (Experiment # 1-6)
human D1R F288A mutant = assay: cAMP assay, D1R mutant F288A; settings: relative to wild-type D1R; each table line is one experiment (Experiment # 1-6)
human D1R N292A mutant = assay: cAMP assay, D1R mutant N292A; settings: relative to wild-type D1R; each table line is one experiment (Experiment # 1-6)
human D1R Y194F mutant = assay: cAMP assay, D1R mutant Y194F; settings: relative to wild-type D1R; each table line is one experiment (Experiment # 1-6)
[5] = 1 mg/kg/day subcutaneous dose, Day 1, 1 h post-dose
[6] = 1 mg/kg/day subcutaneous dose, Day 1, 6 h post-dose
[7] = 1 mg/kg/day subcutaneous dose, Day 2, 1 h post-dose
[8] = 1 mg/kg/day subcutaneous dose, Day 2, 6 h post-dose
[9] = 1 mg/kg/day subcutaneous dose, Day 3, 1 h post-dose
[10] = 1 mg/kg/day subcutaneous dose, Day 3, 6 h post-dose
[11] = 0.9 mg/kg/day split oral dose, Day 1, 5 h post-dose
[12] = 0.9 mg/kg/day split oral dose, Day 2, 1 h post-dose
[13] = 0.9 mg/kg/day split oral dose, Day 2, 5 h post-dose
[14] = 0.9 mg/kg/day split oral dose, Day 3, 1 h post-dose
[15] = 0.9 mg/kg/day split oral dose, Day 3, 5 h post-dose

Compound: NC[C@@H]1O[C@H](C23CC4CC(CC(C4)C2)C3)Cc2c1ccc(O)c2O [A-77636, reference compound]
- Cp (total plasma concentration) [1, 5]: 79.3 ± 11.4 ng/mL
- Cp,u (unbound plasma concentration) [1, 5]: 10.6 ± 1.5 nM
- Cp (total plasma concentration) [1, 6]: 34.8 ± 3.5 ng/mL
- Cp,u (unbound plasma concentration) [1, 6]: 4.6 ± 0.5 nM
- Cp (total plasma concentration) [1, 7]: 73.1 ± 13.8 ng/mL
- Cp,u (unbound plasma concentration) [1, 7]: 9.8 ± 1.8 nM
- Cp (total plasma concentration) [1, 8]: 46.3 ± 11.7 ng/mL
- Cp,u (unbound plasma concentration) [1, 8]: 6.2 ± 1.6 nM
- Cp (total plasma concentration) [1, 9]: 85.5 ± 19.0 ng/mL
- Cp,u (unbound plasma concentration) [1, 9]: 11.4 ± 2.5 nM
- Cp (total plasma concentration) [1, 10]: 40.6 ± 2.8 ng/mL
- Cp,u (unbound plasma concentration) [1, 10]: 5.4 ± 0.4 nM
- fraction unbound [2]: 0.0012
- fraction unbound [3]: 0.044
- contralateral rotational behavior on repeated dosing [4]: essentially zero contralateral rotational behavior

Compound: Cc1cc(Oc2cccc(O)c2O)ccc1-c1c(C)ncnc1C [PF-1437]
- fold shift of cAMP functional potency, S107A (EC50 mutant/ EC50 WT) (human D1R S107A mutant): 1.2
- fold shift of cAMP functional potency, V270A (EC50 mutant/ EC50 WT) (human D1R V270A mutant): 0.6
- fold shift of cAMP functional potency, I117A (EC50 mutant/ EC50 WT) (human D1R I117A mutant): 15.2
- fold shift of cAMP functional potency, K81R (EC50 mutant/ EC50 WT) (human D1R K81R mutant): 0.4

Compound: Cc1n[nH]c(=O)c(C)c1-c1ccc(Oc2nccc3occc23)cc1F [PF-2334]
- Cp (total plasma concentration) ([1]; 0.9 mg/kg/day split oral dose (0.6 + 0.3 mg/kg 8 h later), Day 1, 1 h post-dose): 41.9 ± 9.4 ng/mL
- Cp,u (unbound plasma concentration) ([1]; 0.9 mg/kg/day split oral dose, Day 1, 1 h post-dose): 4.8 ± 1.1 nM
- Cp (total plasma concentration) [1, 11]: 47.0 ± 13.9 ng/mL
- Cp,u (unbound plasma concentration) [1, 11]: 5.4 ± 1.6 nM
- Cp (total plasma concentration) [1, 12]: 71.4 ± 20.1 ng/mL
- Cp,u (unbound plasma concentration) [1, 12]: 8.1 ± 2.3 nM
- Cp (total plasma concentration) [1, 13]: 99.0 ± 36.3 ng/mL
- Cp,u (unbound plasma concentration) [1, 13]: 11.3 ± 4.1 nM
- Cp (total plasma concentration) [1, 14]: 89.5 ± 49.4 ng/mL
- Cp,u (unbound plasma concentration) [1, 14]: 10.2 ± 5.6 nM
- Cp (total plasma concentration) [1, 15]: 106 ± 40 ng/mL
- Cp,u (unbound plasma concentration) [1, 15]: 12.1 ± 4.5 nM
- fraction unbound [2]: 0.021
- fraction unbound [3]: 0.04
- contralateral rotational behavior on repeated dosing [4]: significantly greater rotational behavior than A-77636 treated animals; also recorded: still displaying contralateral rotational behavior following the 6th dose
- pairwise contrast of rotational speed, estimate ([4]; PF-2334 10.78 mg/kg p.o. every 12 h, contrast (time range, hours) 24 - 36, least-squares means): 0.4016
- pairwise contrast of rotational speed, estimate ([4]; PF-2334, contrast (hours) 24 - 48): 0.3322
- pairwise contrast of rotational speed, estimate ([4]; PF-2334, contrast (hours) 24 - 60): 0.371
- pairwise contrast of rotational speed, estimate ([4]; PF-2334, contrast (hours) 24 - 72 (72 h = quinpirole dose)): 1.093
- pairwise contrast of rotational speed, estimate ([4]; PF-2334, contrast (hours) 36 - 48): -0.06943
- pairwise contrast of rotational speed, estimate ([4]; PF-2334, contrast (hours) 36 - 60): -0.03066
- pairwise contrast of rotational speed, estimate ([4]; PF-2334, contrast (hours) 36 - 72 (72 h = quinpirole dose)): 0.6914
- pairwise contrast of rotational speed, estimate ([4]; PF-2334, contrast (hours) 48 - 60): 0.03877
- pairwise contrast of rotational speed, estimate ([4]; PF-2334, contrast (hours) 48 - 72 (72 h = quinpirole dose)): 0.7609
- pairwise contrast of rotational speed, estimate ([4]; PF-2334, contrast (hours) 60 - 72 (72 h = quinpirole dose)): 0.7221

Compound: Cc1cc(Oc2nccc3occc23)ccc1-c1c(C)ncc2nccn12 [PF-6142]
- fold shift of cAMP functional potency, W321A (EC50 mutant/ EC50 WT) (human D1R W321A mutant): 22.7 and 21.1
- fold shift of cAMP functional potency, S199A (EC50 mutant/ EC50 WT) (human D1R S199A mutant): 8.7 and 10.0
- fold shift of cAMP functional potency, S107A (EC50 mutant/ EC50 WT) (human D1R S107A mutant): 2.3
- fold shift of cAMP functional potency, S188I (EC50 mutant/ EC50 WT) (human D1R S188I mutant): 10.6 and 8.5 and 10.1 and 6.7
- fold shift of cAMP functional potency, W318A (EC50 mutant/ EC50 WT) (human D1R W318A mutant): 16.3 and 20.4
- fold shift of cAMP functional potency, V270A (EC50 mutant/ EC50 WT) (human D1R V270A mutant): 1.7
- fold shift of cAMP functional potency, S198A (EC50 mutant/ EC50 WT) (human D1R S198A mutant): 6.0 and 7.0 and 6.4 and 7.5
- fold shift of cAMP functional potency, I117A (EC50 mutant/ EC50 WT) (human D1R I117A mutant): 9.8
- fold shift of cAMP functional potency, F288A (EC50 mutant/ EC50 WT) (human D1R F288A mutant): 141.2 and 88.7
- fold shift of cAMP functional potency, N292A (EC50 mutant/ EC50 WT) (human D1R N292A mutant): 23.7 and 30.6
- fold shift of cAMP functional potency, K81R (EC50 mutant/ EC50 WT) (human D1R K81R mutant): 2.7

Compound: Cc1cc(Oc2nccc3occc23)ccc1-c1c(C)ncnc1C [PF-8871]
- fold shift of cAMP functional potency, W321A (EC50 mutant/ EC50 WT) (human D1R W321A mutant): 21.4
- fold shift of cAMP functional potency, S199A (EC50 mutant/ EC50 WT) (human D1R S199A mutant): 4.3
- fold shift of cAMP functional potency, S188I (EC50 mutant/ EC50 WT) (human D1R S188I mutant): 5.8 and 10.8 and 8.7
- fold shift of cAMP functional potency, W318A (EC50 mutant/ EC50 WT) (human D1R W318A mutant): 12.5
- fold shift of cAMP functional potency, Y194F (EC50 mutant/ EC50 WT) (human D1R Y194F mutant): 1.3
- fold shift of cAMP functional potency, F288A (EC50 mutant/ EC50 WT) (human D1R F288A mutant): 146.3
- fold shift of cAMP functional potency, N292A (EC50 mutant/ EC50 WT) (human D1R N292A mutant): 30.7
